From patent US11351130B2, “Prevention and reversal of inflammation induced DNA damage” (Indiana University Research and Technology Corporation, priority 2017, dated 2022) come the findings set out here.

What all share (assay type): cell-based, rat
The subject of series [1] is neuronal cultures derived from DRG. The experiment in a line: pH2A.X immunoblotting in DRG neuronal cultures (Example 1). How it is done:
(§1) Dorsal root ganglia (DRG) were dissected from all spinal levels of adult male (150-175 g) Sprague-Dawley rats (Envigo, Indianapolis, Ind.) and the cells were dissociated as previously described (Kelley et al., 2014). Briefly, the rats were euthanized by CO2 asphyxiation. DRGs were transferred into collagenase solution (1 mg/ml) and incubated for 1 hour at 37° C. The digested DRGs were then rinsed with growth medium, centrifuged and dissociated by mechanical agitation. Approximately 30,000 cells were plated into each well of 12-well culture plates. All culture dishes were precoated with poly-D-lysine and laminin. Cells were maintained in F-12 media supplemented with 10% horse serum, 2 mM glutamine, 100 μg/ml Normocin, 50 μg/ml penicillin, 50 μg/ml streptomycin, 50 μM 5-fluoro-2′-deoxyuridine, 150 μM uridine, and 30 ng/ml of NGF in 3% CO2 at 37° C. Growth medium was changed every other day.
(§2) Small interfering RNAs to APE1 (APE1siRNA) and scrambled siRNA (SCsiRNA) controls were used to decrease APE1 protein expression in sensory neuronal cell cultures and as controls, respectively, as described previously (Vasko et al., 2005, Jiang et al., 2008a). On day 3 in culture, the growth media was replaced with 0.5 ml of Opti-MEM 1 media containing 100 nM of APE1siRNA (5′-[…]-3′ (SEQ ID NO:1)) or SCsiRNA (5′-[…]-3′(SEQ ID NO:2)); (Vasko et al., 2005)) and 10 μl of the transfecting reagent, Neuroporter. On the next day, 0.5 ml of the growth media without antibiotics was added to each well, and after an additional 24 hours the media containing siRNA was replaced with normal growth media.
(§3) Lentiviral constructs containing (1) the CMV promoter, HA-tagged APE1, IRES, and enhanced green fluorescent protein (EGFP); or (2) CMV, IRES, and EGFP were developed. DNA sequencing confirmed the constructs in the pLenti6-R4R2-V5 plasmid containing WT-, C65-, or 226+177-APE1-IRES-EGFP. For lentiviral infections, DRG cells were cultured 5 days before 150 pfu/cell of the lentivirus was added to the media. Two days later, the virus was removed and the cells grown an additional 5 days in regular media.
Tissues or cells were harvested, lysed in RIPA buffer (Santa Cruz Biotechnology; Santa Cruz, Calif., USA), sonicated, and cleared of cellular debris by centrifuging at 4000 RPM for 2 minutes. Protein was quantified using Lowry assay, and electrophoresed in a 12% SDS-polyacrylamide gel. After electrophoresis, proteins were transferred to a PVDF membrane, and blocked with Tris-buffered saline containing 0.1% Tween-20 (TBST) and 5% nonfat dry milk for 1 hour at room temperature while gently agitating. Mouse monoclonal antihuman Ape1 antibodies (1:1000), mouse monoclonal anti-phospho H2AX antibodies (1:1000), mouse monoclonal anti-vinculin antibody (1:1000), and anti-Hemagglutinin (HA) antibody were added to the blocking solution and incubated for 2 hours at room temperature while gently agitating. Antibody binding was detected following appropriate secondary antibody methods using chemiluminescence. The density of the bands was measured using Quantity One software from Bio-Rad (Hercules, Calif.) and data expressed as density normalized to vinculin.

The test system is the same in series [2]. The experiment in a line: CGRP release from DRG neuronal cultures (Example 1). Particulars: for capsaicin-stimulated release of CGRP: 24 hours. How it is done:
as §1, §2, §3
After neuronal cultures were treated with the appropriate drugs, the cultures were washed once with HEPES buffer consisting of (in mM) 25 HEPES, 135 NaCl, 3.5 KCl, 2.5 CaCl2, 1 MgCl2, 3.3 D-glucose, and 0.1% bovine serum albumin, pH 7.4 and maintained at 37° C. They were then incubated for successive 10-minute intervals with 0.4 ml of HEPES buffer alone (basal release), with buffer containing 30 nM capsaicin, then with buffer alone (to assess return to basal release). After each incubation, the buffer was removed and the amount of immunoreactive CGRP in each sample was measured using radioimmunoassay as previously described (Chen et al., 1996). After the release experiment, the cells in each well were in 0.4 ml of 0.1 M HCl10 minutes and an aliquot taken to measure total CGRP content in the cultures using radioimmunoassay. Total content (fmol/well) was calculated by adding the total amount released in all incubations to the amount measured in the cells. The release data is calculated as fmol released/well/10 minutes.

Series [3] relates to sensory neuronal cultures. The experiment in a line: phospho-H2AX immunoblotting in sensory neuronal cultures (Example 3). Particulars: 10 μM cisplatin for 24 or 48 hours. How it is done: Primary cultures of sensory neurons were harvested and maintained as previously described (Vasko et al., 2005). Briefly, adult male Sprague-Dawley rats (150-175 g; Harlan, Indianapolis, Ind.) were euthanized by CO2 asphyxiation and dorsal root ganglia (DRG) dissected from all spinal levels, transferred to into a collagenase solution (1 mg/ml), incubated for 1 hour at 37° C., then dissociated by mechanical agitation. Approximately 30,000 cells or 60,000 cells were plated into each well of 12-well or 6-well culture plates, respectively. All culture dishes were precoated with poly-D-lysine and laminin. Cells were maintained in F-12 media supplemented with 10% horse serum, 2 mM glutamine, 100 μg/ml Normocin™, 50 μg/ml penicillin, 50 μg/ml streptomycin, 50 μM 5-fluoro-2′-deoxyuridine (Invitrogen), 150 μM uridine, and 30 ng/ml of NGF in 3% CO2 at 37° C. Growth medium was changed every other day. Experiments were performed after cells were maintained in culture for 12-14 days.
Immunoblotting was performed as previously described (Kelley et al., 2014). Briefly, cells were lysed in RIPA buffer (Santa Cruz Biotechnology; Santa Cruz, Calif., USA) and protein was quantified using the Lowey assay. Proteins were separated by electrophoresis on a 4-12% SDS-polyacrylamide gel. The gel was transferred to a PVDF membrane and incubated overnight at 4° C. in Tris-buffered saline containing 0.1% Tween-20 (TBST) and 5% nonfat dry milk while gently agitating. Mouse monoclonal antihuman Ape1 antibodies (1:500), mouse monoclonal anti-phospho H2AX antibodies (1:1000), or (3-Actin monoclonal antibody (1:1000) were added to the blocking solution and incubated overnight at room temperature while gently agitating. Antibody binding was detected following appropriate secondary antibody methods using chemiluminescence. The density of the bands was measured using QUALITYONE® software from Bio-Rad (Hercules, Calif.) and data expressed as density normalized to actin.
On the technique in general: Immunoblotting shows a protein as a band on a membrane.

Consider `Cc1ccc2c(c1)C1(CCN(CCc3nc(-c4ccccc4)oc3C)CC1)OC(=O)N2` [RS 50493], for which, in series [1] (0.3 μg/ml MCP-1 24 hr, RS 50493 1 μM), the “pH2A.X expression relative to the expression elicited by MCP-1 alone” value is reported as 8.5%. In addition, the “reduction of LPS-induced increase in pH2A.X expression” value in series [1] (3.0 μg/ml LPS 24 hr, LPS-RS 2 μg/ml, RS 50493 1 μM, from 1 hour prior) is 92.5 % reduction. The “effect on MCP-1-induced augmentation of CGRP release” value in series [2] (0.3 μg/ml MCP-1, RS 50493 1 μM) is reported as “prevented”. Moreover, in series [2] (3.0 μg/ml LPS, LPS-RS 2 μg/ml, RS 50493 1 μM), the “effect on LPS-induced decrease in CGRP release” value is on record as “blocked the decrease in release induced by LPS”.
For the compound `COc1cc(CNC(=O)CCCC/C=C/C(C)C)ccc1O` [capsaicin], in series [2] (30 nM capsaicin, 10-minute period, no inflammatory mediator), the “release of CGRP stimulated by capsaicin” value is reported as “approximately 10 % of the total content”.
With `N.N.[Cl][Pt][Cl]` [cisplatin, reference compound], the “levels of pH2AX” value in series [3] is recorded as “significant increase in the levels of pH2AX”.
Turning to “MCP-1: Recombinant rat CCL2/MCP-1 protein”, in series [1] (LPS 1 μg/ml, MCP-1 100 ng/ml), the “levels of pH2A.X over time” value is “induced pH2A.X expression”. In addition, the “onset of pH2A.X increase” value in series [1] (LPS 1 μg/ml, MCP-1 100 ng/ml) is given as 16 hours. Further, the “peak of pH2A.X increase” value in series [1] (LPS 1 μg/ml, MCP-1 100 ng/ml) was found to be 24 hours. Besides, in series [1] (SCsiRNA-treated cultures, 24 hours, LPS 3 μg/ml, MCP-1 0.3 μg/ml), the pH2A.X expression entry was “enhanced expression of pH2A.X”. Moreover, the “CGRP release relative to the release in the absence of MCP-1” value in series [2] (0.3 μg/ml MCP-1, 24 hours) is reported as 142.8%. Besides, the results for the “capsaicin-stimulated release of CGRP” value in series [2] (0.3 μg/ml), in series [2] (1.0 μg/ml) and in series [2] (10.0 μg/ml) were 13.0±0.8 % of total content, 15.0±1.0 % of total content and 6.3±1.0 % of total content, respectively. Further, the “release of CGRP stimulated by capsaicin” value in series [2] (APE1siRNA-treated cultures, MCP-1 0.3 μg/ml) is given as “caused a decrease in CGRP release”; in series [2] (SCsiRNA-treated cultures, MCP-1 0.3 μg/ml), “enhanced the release of CGRP”. Moreover, the “total content of CGRP compared with vehicle” value in series [2] (data not shown) is “similar”.
